In US8440652B2, “MST1 kinase inhibitors and methods of their use” (Lexicon Pharmaceuticals, Inc., priority 2011, dated 2013):
Where two headings read alike, the source gives them in different places.

Assays:
rat EAE model = experiment: Rat EAE disease model; type: in vivo
[1] = test system: Con-A induced hepatitis model; experiment: Con-A induced hepatitis model; type: in vivo, mouse
Procedure: This model was generally conducted as follows. C57Bl/6-Albino/129SvEv mice were injected intravenously (i/v) via the lateral tail vein with a single sublethal dose of Concanavalin A from Canavalia ensiformis (Jack bean, Type IV-S, lyophilized powder, aseptically processed; Sigma) administered at 10-16 mg/kg mouse body weight in a total volume of 0.1-0.3 ml of pyrogen-free PBS. The tail vein injections of mice restrained in a Plexiglas mouse restrainer were performed without anesthesia, using a 1 ml syringe with a 27 gauge needle. At six and 24 hr post-injection, blood samples were collected by retro-orbital bleeding. The animals were sacrificed and sera from the blood samples were analyzed for the presence of IL-12, TNF-α, MCP-1, IFN-γ, IL-10, and IL-6 using a mouse inflammation cytometric bead array (CBA) kit (BD Biosciences, Mountain View, Calif.), according to the manufacturer's instructions. Data were acquired with a FACSCalibur flow cytometer and analyzed with BD CBA Software (BD Biosciences). Biochemical markers of liver failure were assessed by measuring serum liver damage enzymes, aspartate aminotransferase (AST) and alanine aminotransferase (ALT), using a standard clinical biochemical analyzer. Livers of ConA-treated mice were sectioned and stained with H&E to evaluate the degree of T cell-mediated immune inflammation.

MST1 = molecular target: T1, MST1 (Homo sapiens, UniProt Q13043); experiment: In vitro measurement of MST1 inhibition (Z′-Lyte kinase assay); type: biochemical
T1 sequence (Q13043 1-487): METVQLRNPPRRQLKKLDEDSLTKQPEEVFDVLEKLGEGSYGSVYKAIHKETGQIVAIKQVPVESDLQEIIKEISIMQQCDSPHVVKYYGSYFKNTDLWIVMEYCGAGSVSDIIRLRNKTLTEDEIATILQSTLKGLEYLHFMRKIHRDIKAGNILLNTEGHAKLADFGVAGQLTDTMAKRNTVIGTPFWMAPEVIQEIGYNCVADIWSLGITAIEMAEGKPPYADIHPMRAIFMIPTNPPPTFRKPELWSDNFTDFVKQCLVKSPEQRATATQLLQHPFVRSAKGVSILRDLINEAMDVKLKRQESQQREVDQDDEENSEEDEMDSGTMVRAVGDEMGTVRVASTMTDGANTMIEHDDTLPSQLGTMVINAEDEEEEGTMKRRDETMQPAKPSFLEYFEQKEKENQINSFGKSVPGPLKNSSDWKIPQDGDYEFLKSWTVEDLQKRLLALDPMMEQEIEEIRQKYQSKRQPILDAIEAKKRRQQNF

mouse EAE model = experiment: Mouse EAE disease model; type: in vivo; settings: mice, subcutaneous dosing, 3 mg/kg, 10 mg/kg BID 12 days from Day 9 after MOG immunization; FIG. 9A
Procedure: Here, an adaptation of the method of Bettelli, et al., J. Immunol. 161:3299 (1998) was implemented. Eight to 12 weeks old C57Bl/6-Albino/129SvEv littermates were immunized subcutaneously with a total of 300 μg MOGp35-55 peptide ([…]) emulsified in complete Freund's adjuvant (CFA) containing 250 μg heat-inactivated Mycobacterium tuberculosis H37 Ra (Difco Laboratories). The antigen was divided equally across two injection sites in the abdominal flanks. Immediately following the injection of the emulsified antigen (day 0), each mouse received one intravenous injection of 500 ng of Pertussis toxin (List Biological Laboratories). Animal weights were recorded prior to the start of the experiment and monitored throughout the experiment, 2-3 times per week. Disease severity was scored on a scale as follows: 0=asymptomatic, no detectable sign of disease; 1=slight weakness of the tail/floppy tail and/or slumped hindquarters; 2=definite total paralysis of the tail; 3=mild waddle/distorted gait and total paralysis of the tail and/or mild impaired righting reflex; 4=heavy waddle with impaired control-weakness of hind limbs and/or impaired righting reflex; 5=paralysis of one of the hind limbs possibly with mild forelimb weakness; 6=paralysis of both hind limbs and/or moderate to severe forelimb weakness; 7=quadriplegia/paralysis of all limbs—hind and fore; 8=moribund/dead. […]

mouse CIA disease model = experiment: Mouse CIA disease model; type: in vivo; settings: mice, 10, 30, 100 mg/kg PO bid 21 days from Day 20 after immunization; FIG. 4
Procedure: Eight to 16 weeks old DBA/1 mice were immunized intradermally (i.d.) at several sites into the base of the tail with 100 μg of chicken type II collagen (CII; Sigma Chemical Co.) in Freund's complete adjuvant (CFA; Difco, Detroit, Mich.) containing 2.5 mg/ml M. tuberculosis, followed by a repeat booster i.d. injection of CII (100 μg emulsified in CFA) given 3 weeks after the primary immunization. Mice were monitored daily for signs of arthritis, and disease severity scores were assessed by a visual scoring of 0 to 4 according to the following scale: 0=no erythema and swelling; 1=erythema and mild swelling of the mid-foot or ankle joint; 2=erythema and mild swelling extending from the ankle to the mid-foot; 3=erythema and moderate swelling extending from the ankle to the metatarsal joints; 4=erythema and severe swelling of the ankle, foot, and digits. Total disease severity scores were recorded as a sum of visual scores for four limbs. In addition to visual scoring, paw thickness was measured with a micrometer caliper.

rat CIA disease model = experiment: Rat CIA disease model; type: in vivo; settings: rats, 10 and 25 mg/kg PO BID, 50 mg/kg QD from Day 11 after immunization; FIG. 5
Procedure: CIA was elicited in rats according to Rosloniec, E. F., et al., Curr Protoc Immunol Chapter 15: Unit 15, pp. 11-25. Here, Lewis rats (150-200 g, female; Charles River Laboratories, Wilmington, Mass.) were injected intradermally at the base of the tail with a total of 300 μl of a 1:1 emulsion of bovine type II collagen (CII; 150 μg total; Sigma-Aldrich) and incomplete Freund's adjuvant (IFA; 150 μl total; Sigma-Aldrich), followed by a repeat booster injection of the same emulsion 7 days after the primary immunization. Rats were monitored for signs of arthritis by clinical scoring (visual observation) of each rat paw, using the rating scale described above. The extent of swelling was calculated by subtracting the baseline values of the first measurement from the values of subsequent measurements.

[2] = 1 μM ATP, read-out: IC50 (μM) 1 μM ATP
[3] = 50 μM ATP, read-out: IC50 (μM) 50 μM ATP

SMILES	IC50 (MST1; [2]) [µM]	IC50 (MST1; [3]) [µM]	other results
N#CC1(c2ccc(-c3cnc(N)c(-c4ccc5c(c4)CCNC5=O)n3)cc2)CC1 [1-(4-(5-amino-6-(1-oxo-1,2,3,4-tetrahydroisoquinolin-6-yl)pyrazin-2-yl)phenyl)cyclopropanecarbonitrile]	< 0.05	< 0.01	severity of clinical score (rat EAE model; rats, 0.3, 1, 3 or 10 mg/kg PO QD from Day 10 after immunization, FIG. 7A): dose-dependent reduction in severity of clinical score; TNF-α, IL-6, MCP-1, IFN-γ, ALT and AST ([1]; mice, 1, 3, 10, 30 mg/kg PO 16 h and 1 h before and 8 h after Con-A challenge, FIG. 8): clear effect
CN(C1CC1)S(=O)(=O)c1ccc(-c2cnc(N)c(-c3ccc4c(c3)CCNC4=O)n2)cc1 [4-(5-amino-6-(1-oxo-1,2,3,4-tetrahydroisoquinolin-6-yl)pyrazin-2-yl)-N-cyclopropyl-N-methylbenzenesulfonamide]	< 0.01	< 0.01	clinical score (mouse EAE model): clear dose-dependency in clinical score
CN(C1CC1)S(=O)(=O)c1ccc(-c2cnc(N)c(-c3ccc4c(c3)CCNC4=O)c2)cc1 [4-(6-amino-5-(1-oxo-1,2,3,4-tetrahydroisoquinolin-6-yl)pyridin-3-yl)-N-cyclopropyl-N-methylbenzenesulfonamide]	< 0.01	< 0.01	severity of clinical score (rat EAE model; rats, 10, 25 or 50 mg/kg PO BID from Day 9 after immunization, FIG. 3): dose-dependent reduction in severity of clinical score; TNF-α, IL-6, MCP-1, IFN-γ, ALT and AST ([1]; mice, 10, 30, 100 mg/kg dosed 16 h and 1 h before and 8 h after Con-A challenge, FIG. 6): clear effect; cumulative arthritis score and change in ankle thickness (mouse CIA disease model): clear benefit versus control; cumulative arthritis score and change in ankle thickness (rat CIA disease model): therapeutic effect
C[C@H]1CNc2cc(-c3cc(-c4ccc(S(=O)(=O)NC5CC5)cc4)cnc3N)ccc2C(=O)N1 [(S)-4-(6-amino-5-(3-methyl-5-oxo-2,3,4,5-tetrahydro-1H-benzo[e][1,4]diazepin-8-yl)pyridin-3-yl)-N-cyclopropylbenzenesulfonamide]	< 0.01	< 0.01	
C[C@H]1COc2cc(-c3cc(-c4ccc(S(=O)(=O)N(C)C5CC5)cc4)cnc3N)ccc2C(=O)N1 [(S)-4-(6-amino-5-(3-methyl-5-oxo-2,3,4,5-tetrahydrobenzo[f][1,4]oxazepin-8-yl)pyridin-3-yl)-N-cyclopropyl-N-methylbenzenesulfonamide]	< 0.05	< 0.01	
CC(=O)NCc1ccc(-c2cnc(N)c(-c3ccc4c(c3)CCNC4=O)c2)cc1 [N-(4-(6-amino-5-(1-oxo-1,2,3,4-tetrahydroisoquinolin-6-yl)pyridin-3-yl)benzyl)acetamide]	< 0.05	< 0.01	
CCS(=O)(=O)Nc1ccc(-c2cnc(N)c(-c3ccc4c(c3)CCNC4=O)c2)cc1 [N-(4-(6-amino-5-(1-oxo-1,2,3,4-tetrahydroisoquinolin-6-yl)pyridin-3-yl)phenyl)ethanesulfonamide]	< 0.05	< 0.01	
C=CCN(C)S(=O)(=O)c1ccc(-c2cnc(N)c(-c3ccc4c(c3)CCNC4=O)c2)cc1 [N-allyl-4-(6-amino-5-(1-oxo-1,2,3,4-tetrahydroisoquinolin-6-yl)pyridin-3-yl)-N-methylbenzenesulfonamide]	< 0.01	< 0.01	
O=C1NCCc2cc(-c3c[nH]c4ncc(-c5ccc(S(=O)(=O)NC6CC6)cc5)cc34)ccc21 [N-cyclopropyl-4-(3-(1-oxo-1,2,3,4-tetrahydroisoquinolin-6-yl)-1H-pyrrolo[2,3-b]pyridin-5-yl)benzenesulfonamide]	< 0.05	< 0.01	
CCOC(=O)Cc1ccc(-c2cnc(N)c(-c3ccc4c(c3)CCNC4=O)n2)cc1 [ethyl 2-(4-(5-amino-6-(1-oxo-1,2,3,4-tetrahydroisoquinolin-6-yl)pyrazin-2-yl)phenyl)acetate]	< 0.15	< 0.05	
COC(=O)CN(C)S(=O)(=O)c1ccc(-c2cnc(N)c(-c3ccc4c(c3)CCNC4=O)c2)cc1 [methyl 2-(4-(6-amino-5-(1-oxo-1,2,3,4-tetrahydroisoquinolin-6-yl)pyridin-3-yl)-N-methylphenylsulfonamido)acetate]	< 0.15	< 0.05	
CC(C)(C)OC(=O)N1CC=C(c2cnc(N)c(-c3ccc4c(c3)CCNC4=O)c2)CC1 [tert-butyl 6-amino-5-(1-oxo-1,2,3,4-tetrahydroisoquinolin-6-yl)-5′,6′-dihydro-[3,4′-bipyridine]-1′(2′H)-carboxylate]	< 0.15	< 0.05	
